The target of assay [1] is T1, hCB2 wt (Homo sapiens, UniProt P34972).
T1 construct: gene CNR2; full-length (63Q), N-terminal HA tag and three thrombin cleavage sites (HA-3TCS), pcDNA5/FRT, expressed in HEK Flp-in-293 cells
As to the kind of experiment: receptor internalisation, surface HA immunocytochemistry (Method A). Format: cell-based. The note with it: read-out: Method A: Internalisation (3 h) / CB2 wt / pEC50 (± SEM) (converted). The source says: receptor internalisation, surface HA immunocytochemistry (Method A) on hCB2 wt

For assay [2], the target named is T2, hCB2 wt (Homo sapiens, UniProt P34972, K318E/K319E).
T2 construct: gene CNR2; full-length (63Q), N-terminal HA tag and three thrombin cleavage sites (HA-3TCS), pcDNA5/FRT, expressed in HEK Flp-in-293 cells
T2 sequence (P34972 whole entry K318E/K319E): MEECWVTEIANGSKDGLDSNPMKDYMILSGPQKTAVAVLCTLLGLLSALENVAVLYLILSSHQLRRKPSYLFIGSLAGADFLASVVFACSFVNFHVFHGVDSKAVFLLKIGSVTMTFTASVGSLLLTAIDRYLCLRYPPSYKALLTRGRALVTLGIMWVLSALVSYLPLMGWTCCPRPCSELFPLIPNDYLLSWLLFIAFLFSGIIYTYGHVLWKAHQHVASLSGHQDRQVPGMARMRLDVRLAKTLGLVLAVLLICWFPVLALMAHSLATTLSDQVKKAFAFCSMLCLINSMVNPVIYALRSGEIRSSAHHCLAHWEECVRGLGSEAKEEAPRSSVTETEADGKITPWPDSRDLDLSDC
As to the kind of experiment: net surface expression, immunocytochemistry (Method B). Format: cell-based. The note with it: read-out: Method B: Net Surface Expression (3 h) / KK mutant / pEC50 (± SEM) (converted).

T1 sequence (P34972 whole entry): as the sequence (P34972 whole entry K318E/K319E) above, with E318K, E319K counted along it

Take `CCCCC/C=C\C/C=C\C/C=C\C/C=C\CCCC(=O)OC(CO)CO` [2-AG]: the EC50 at hCB2 wt [1] was 0.741 µM.

Consider `COc1ccc(C(=O)c2c(C)n(CCN3CCOCC3)c3cc(I)ccc23)cc1` [AM630], for which, on hCB2 wt [2], the EC50 is 0.513 µM.

For the origin of these results see article PMC12748375, “Insights into cannabinoid receptor 2 (CB2) anterograde trafficking and pharmacological chaperoning” (Cellular and Molecular Life Sciences: CMLS, 2025).
